US20200239530A1, “COMPOUNDS AND METHODS OF MODULATING PROTEIN DEGRADATION” (Vividion Therapeutics, Inc., priority 2017, published 2020)

Columns and labels:
Test in all cases: Competitive cysteine profiling of cell lysate with desthiobiotin iodoacetamide probe (96-well sample prep)
Assay type in all cases: binding
[1] = target: T1, cysteine residue illustrated in Table 1A or Table 2A (Homo sapiens, UniProt Q5T6F0); details: UniProt Q5T6F0; 100 uM
T1 construct: Cells were resuspended in cold PBS on ice and sonicated with a probe sonicator to achieve lysis; endogenous in cells
In short: (§1)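 Sonicated cell lysate (5 mg/ml proteome) was preincubated with compound 1 h at 25 °C, then labelled with desthiobiotin iodoacetamide probe 1 h at 25 °C. After reduction, alkylation and trypsin digestion, probe-labelled peptides were streptavidin-enriched and eluted for mass-spectrometric analysis.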

[2] = target: T2, cysteine residue illustrated in Table 1A or Table 2A (Homo sapiens, UniProt Q8N3P4); details: UniProt Q8N3P4
T2 construct: Cells were resuspended in cold PBS on ice and sonicated with a probe sonicator to achieve lysis; endogenous in cells
In short: as §1

[3] = target: T3, cysteine residue illustrated in Table 1A or Table 2A (Homo sapiens, UniProt Q96GG9); details: UniProt Q96GG9; 100 uM
T3 construct: Cells were resuspended in cold PBS on ice and sonicated with a probe sonicator to achieve lysis; endogenous in cells
In short: as §1

[4] = target: T4, cysteine residue illustrated in Table 1A or Table 2A (Homo sapiens, UniProt Q9P000); details: UniProt Q9P000; 100 uM
T4 construct: Cells were resuspended in cold PBS on ice and sonicated with a probe sonicator to achieve lysis; endogenous in cells
In short: as §1

[5] = target: T5, cysteine residue illustrated in Table 1A or Table 2A (Homo sapiens, UniProt Q8NHY2); details: UniProt Q8NHY2; 100 uM
T5 construct: Cells were resuspended in cold PBS on ice and sonicated with a probe sonicator to achieve lysis; endogenous in cells
In short: as §1

`C=CC(=O)N(c1ccccc1)c1ccc(Br)cc1` [KB05] was tested, and the “KB05_100 uM_percent_inhibition” value [1] was 31%, the “KB05_100 uM_percent_inhibition” value ([2]; KB05 100 uM) was 55% and the “KB05_100 uM_percent_inhibition” value [3] was 10%. For the same compound, the “KB05_100 uM_percent_inhibition” value [4] was 19% and the “KB05_100 uM_percent_inhibition” value [5] was 43%.
For `O=C(CCl)Nc1cc(C(F)(F)F)cc(C(F)(F)F)c1` [KBO3], the “KB03_100 uM_percent_inhibition” value [1] was 11%, the “KB03_100 uM_percent_inhibition” value ([2]; KB03 100 uM) was 44% and the “KB03_100 uM_percent_inhibition” value [3] was 26%. The “KB03_100 uM_percent_inhibition” value [4] was 30% and the “KB03_100 uM_percent_inhibition” value [5] was 27%.
